Each structure is given as a SMILES string. Entries after “also recorded” stand apart in the source; their conditions may differ.

What all share (type): cell-based
The subject of data set [1] is tumor necrosis factor α (TNF-α). As to the kind of experiment: TNF-α secretion by ELISA in LPS-treated RAW 264.7 macrophages. Particulars: RAW 264.7, serum-free medium, 1 or 10 μM 2 hours, then 10 ng/mL LPS 6 hours, FIG. 17. On the procedure: (§1) RAW 264.7 macrophages were used as in Test Example 2. A serum-free medium without comprising FBS was used for the measurement of the amount of cytokines. After pretreating the cells for 2 hours with each ginsenoside at 1 or 10 μM under the same condition as in Test Example 1 and then treating with 10 ng/mL LPS for 6 hours, only the medium was recovered and the secretion of pro-inflammatory cytokines, tumor necrosis factor α (TNF-α), interleukin 1β (IL-1β) and IL-6, was measured using an enzyme-linked immunosorbent assay kit (Abcam).
For orientation: In an ELISA, binding on a coated surface is turned into a signal by an enzyme label.

The test system of data set [2] is nitric oxide (NO) production in RAW264.7 macrophages. As to the kind of experiment: Nitric oxide (NO) production by Griess reaction in LPS-treated RAW 264.7 macrophages. Conditions: 1 or 10 μM 1 hour, then 10 ng/mL LPS 1 hour, FIG. 20. Here is the method: RAW 264.7 macrophages were treated with 10 μM L-NAME (NO production inhibitor; control group; Sigma), ginsenosides Rg1, Rg3 and Rb1 (purchased from Sigma), which are marker compounds of red ginseng, as comparative examples of the present disclosure or the novel ginsenoside GS #10 (extracted from ginseng seed) as an example of the present disclosure at 1 or 10 μM for 1 hour, and then treated with 10 ng/mL LPS for 1 hour. The amount of NO produced during 1 hour was measured using the Griess reaction. Briefly, after adding 50 μL of sulfanilamide solution to 50 μL of each ginsenoside sample, the mixture was incubated for 10 minutes at room temperature under protection from light. Then, after adding N-(1-napthyl)ethylenediamine solution (50 μL), the mixture was further incubated for 10 minutes at room temperature under protection from light. The […] of NO was measured at a wavelength of 540 nm using a Tecan Infinite® 200 Pro multiplate reader. Sodium nitrite (NaNO2) was used to create a standard curve.
Background: The Griess reaction detects nitrite, a stable product of nitric oxide.

Data set [3] concerns IL-1β. The data set is described as follows: IL-1β gene expression by qPCR in LPS-treated RAW 264.7 macrophages. Particulars: then 10 ng/mL LPS 6 hours. Here is the method: (§2) RAW 264.7 macrophages purchased from ATCC were cultured in Dulbecco's modified Eagle's medium (Sigma) supplemented with 10% fetal bovine serum (FBS; HyClone) and 1% penicillin/streptomycin (Sigma) in a 5% CO2 incubator. After pretreating the RAW 264.7 cells with each of the 7 ginsenosides extracted from ginseng seed (GS #01 to GS #06 and GS #10; 10 μM each) for 2 hours, the cells were further treated with 10 ng/mL lipopolysaccharide (LPS; inflammation-induced group, Sigma) for 6 hours. Then, after extracting RNA using a Trizol™ reagent (Thermo Fisher Scientific), cDNA was synthesized using a RevertAid™ first-strand cDNA synthesis kit (Thermo Fisher Scientific). The expression of inflammation-related genes (IL-1β, IL-6 and iNOS) was observed using a CFX96 real-time quantitative PCR (qPCR) system (Bio-Rad).
(§3) RAW 264.7 macrophages were pretreated with ginsenosides Rg1, Rg3 and Rb1 (purchased from Sigma), which are marker compounds of red ginseng, as comparative examples of the present disclosure or the novel ginsenoside GS #10 (isolated from the ginseng seed extract) as an example of the present disclosure at 1 or 10 μM for 2 hours and then further treated with 10 ng/mL lipopolysaccharide (LPS) for 6 hours to induce inflammation. Then, after extracting RNA and synthesizing cDNA in the same manner as in Test Example 1, the expression of inflammation-related genes was observed by qPCR. […]
On the technique in general: Quantitative PCR measures a nucleic acid by following its amplification.

The test system of data set [4] is IL-6. The data set is described as follows: IL-6 gene expression by qPCR in LPS-treated RAW 264.7 macrophages. Particulars: then 10 ng/mL LPS 6 hours. Here is the method:
as §2, §3

In data set [5] the test system is iNOS. The data set is described as follows: iNOS gene expression by qPCR in LPS-treated RAW 264.7 macrophages. Conditions: then 10 ng/mL LPS 6 hours. Here is the method:
as §2, §3

The test system of data set [6] is interleukin 1β (IL-1β). As to the kind of experiment: IL-1β secretion by ELISA in LPS-treated RAW 264.7 macrophages. Conditions: RAW 264.7, serum-free medium, 1 or 10 μM 2 hours, then 10 ng/mL LPS 6 hours, FIG. 18. Here is the method:
as §1

In data set [7] the test system is inflammation-related genes (IL-1β, IL-6 and iNOS). As to the kind of experiment: Overall anti-inflammatory effect from qPCR of inflammation-related genes (Test Example 2). Conditions: RAW 264.7; 1 or 10 μM, LPS 10 ng/mL; relative to Rg1; FIGS. 14-16. On the procedure: as §2, §3
Data set [8] relates to IL-6. The data set is described as follows: IL-6 secretion by ELISA in LPS-treated RAW 264.7 macrophages. Conditions: RAW 264.7, serum-free medium, 1 or 10 μM 2 hours, then 10 ng/mL LPS 6 hours, FIG. 19. Here is the method:
as §1

The test system of data set [9] is SH-SY5Y cells. The data set is described as follows: Cytotoxicity, cell viability by CCK-8. Particulars: 0.1, 1, 5, 10, 20 and 50 μM, FIG. 21. Here is the method: After adding 10 μL of CCK-8 reagent to SH-SY5Y cells (Dojindo, MD, USA) on a 96-well plate and maintaining at 37° C. for 2 hours, absorbance was measured at 450 nm.
Cell viability was represented as the percentage (%) of the absolute optical density of each sample with respect to an untreated sample. The concentrations of the novel ginsenoside GS #10 according to an exemplary embodiment of the present disclosure in the medium for culturing the cells were 0.1, 1, 5, 10, 20 and 50 μM.

With `CC1(C)C(=O)CC[C@@]2(C)C1[C@@H](O[C@H]1OC(CO)[C@H](O)C(O)C1O[C@H]1OC(CO)[C@H](O)C(O)C1O)C[C@]1(C)C2C[C@@H](O)C2C([C@]3(C)CC[C@H](C(C)(C)O)O3)CC[C@]21C` (stereo partly drawn) [Compound 10, (20S,24R)-6-O-β-D-glucopyranosyl(1→2)-β-D-glucopyranoside-dammar-3-one-20,24-epoxy-6a,12b,25-triol], in [1], the “secretion of TNF-α” value is “significant decreased secretion”. For the same compound, the “NO production-inhibiting ability compared to Rg1, Rg3 and Rb1” value in [2] is “remarkably superior”. The NO production result in data set [2] (with increasing dosage) was “decreased”. Besides, the “expression level of the IL-1β gene” value in [3] (10 μM pretreatment 2 hours, compared to Compounds 1-6 at the same concentration, FIG. 11) is reported as “remarkably suppress”. In data set [3] (1 or 10 μM for 2 hours, compared to Rg1, Rg3 and Rb1, FIG. 14), the “anti-inflammatory effect (IL-1β expression level)” value is given as “remarkably excellent anti-inflammatory effect”. Besides, in data set [4] (10 μM pretreatment 2 hours, compared to Compounds 1-6 at the same concentration, FIG. 12), the “expression level of the IL-6 gene” value is listed as “remarkably suppress”. Further, in [4] (1 or 10 μM for 2 hours, compared to Rg1, Rg3 and Rb1, FIG. 15), the “anti-inflammatory effect (IL-6 expression level)” value was “remarkably excellent anti-inflammatory effect”. Further, the “expression level of the iNOS gene” value in data set [5] (10 μM pretreatment 2 hours, compared to Compounds 1-6 at the same concentration, FIG. 13) is recorded as “remarkably suppress”. In addition, the “anti-inflammatory effect (iNOS expression level)” value in data set [5] (1 or 10 μM for 2 hours, compared to Rg1, Rg3 and Rb1, FIG. 16, listed as GS #10) is “remarkably excellent anti-inflammatory effect; also recorded: decreased greatly”. For the same compound, in data set [6], the “secretion of IL-1β” value is “significant decreased secretion”. In addition, the “anti-inflammatory effect superior to that of Rg1” value in data set [7] was “about 10 times”. For the same compound, the “secretion of IL-6” value in data set [8] is “significant decreased secretion”. Besides, the “cytotoxicity (cell viability, % of untreated sample)” value in [9] is reported as “no cytotoxicity”.
Regarding `CC(C)=CCC[C@](C)(O[C@@H]1O[C@H](CO[C@@H]2O[C@H](CO)[C@@H](O)[C@H](O)[C@H]2O)[C@@H](O)[C@H](O)[C@H]1O)[C@H]1CC[C@]2(C)[C@@H]1[C@H](O)C[C@@H]1[C@@]3(C)CC[C@H](O[C@@H]4O[C@H](CO)[C@@H](O)[C@H](O)[C@H]4O[C@@H]4O[C@H](CO)[C@@H](O)[C@H](O)[C@H]4O)C(C)(C)[C@@H]3CC[C@]12C` [Rb1, ginsenoside Rb1], the “secretion of TNF-α” value in data set [1] is given as “decreased”. Also, in data set [6], the “secretion of IL-1β” value is given as “decreased”. Besides, the “secretion of IL-6” value in data set [8] is “decreased”.
Regarding `CC(C)=CCC[C@](C)(O[C@@H]1O[C@H](CO)[C@@H](O)[C@H](O)[C@H]1O)[C@H]1CC[C@]2(C)[C@@H]1[C@H](O)C[C@@H]1[C@@]3(C)CC[C@H](O)C(C)(C)[C@@H]3[C@@H](O[C@@H]3O[C@H](CO)[C@@H](O)[C@H](O)[C@H]3O)C[C@]12C` [Rg1, ginsenoside Rg1], in data set [1], the “secretion of TNF-α” value is “decreased”. In data set [6], the “secretion of IL-1β” value is reported as “decreased”. Also, the “secretion of IL-6” value in data set [8] was “decreased”.
For `CC(C)=CCC[C@](C)(O)[C@H]1CC[C@]2(C)[C@@H]1[C@H](O)C[C@@H]1[C@@]3(C)CC[C@H](O[C@@H]4O[C@H](CO)[C@@H](O)[C@H](O)[C@H]4O[C@@H]4O[C@H](CO)[C@@H](O)[C@H](O)[C@H]4O)C(C)(C)[C@@H]3CC[C@]12C` [Rg3, ginsenoside Rg3], the “secretion of TNF-α” value in data set [1] is listed as “decreased”. The “secretion of IL-1β” value in [6] is listed as “decreased”. In addition, the “secretion of IL-6” value in data set [8] was “decreased”.
